Experimental data taken from patent publication EP0908457B1, “3-(1,2-benzisothiazol- and isoxazol-5-Y1)-2,4(1H,3H)-pyrimidinedione or thione and 3-(1,2-benzisothiazol- and isoxazol-5-y1)-4(3H)-pyrimidinone or thione herbicidal agents” (BASF AKTIENGESELLSCHAFT, priority 1997, dated 1999).

Assays:
[1] = system: Echinochloa oryzoides (Ard.) Fritsch.; experiment: Preemergence weed control under flooded paddy conditions, ECHORC (Watergrass (Calif.)); assay type: in vivo; conditions: preemergence, flooded paddy, rated three to four weeks after treatment
Cyperus iria = experiment: Preemergence weed control under flooded paddy conditions, CYPIR (Rice Flatsedge); assay type: in vivo; conditions: preemergence, flooded paddy, rated three to four weeks after treatment
[2] = system: Cyperus serotinus, Rottb.; experiment: Preemergence weed control under flooded paddy conditions, CYPSE (Flatsedge); assay type: in vivo; conditions: preemergence, rated three to four weeks after treatment
[3] = system: Monochoria vaginalis, Presl.; experiment: Preemergence weed control under flooded paddy conditions, MOOVA (Monochoria); assay type: in vivo; conditions: preemergence, flooded paddy, rated three to four weeks after treatment
Sagittaria pygmaea, L. = experiment: Preemergence weed control under flooded paddy conditions, SAGPY (Arrowhead (Pygmaea)); assay type: in vivo; conditions: preemergence, flooded paddy, rated three to four weeks after treatment
[4] = system: Oryza sativa, (L.) Tebonnet; experiment: Rice tolerance to post-transplant applications under flooded paddy conditions (Example 187), ORYSAT (Rice, Tebonnet); conditions: rated three to four weeks after treatment
Further: meaning of each grade not given here.

Row | Compound | herbicidal effect rating, ECHORC ([1]; Rate 0.0320 kg/ha) | herbicidal effect rating, ECHORC ([1]; Rate 0.0620 kg/ha) | herbicidal effect rating, ECHORC ([1]; Rate 0.1250 kg/ha) | herbicidal effect rating, ECHORC ([1]; Rate 0.2500 kg/ha) | herbicidal effect rating, CYPIR (Cyperus iria; Rate 0.0320 kg/ha) | herbicidal effect rating, CYPIR (Cyperus iria; Rate 0.0620 kg/ha) | herbicidal effect rating, CYPIR (Cyperus iria; Rate 0.1250 kg/ha) | herbicidal effect rating, CYPIR (Cyperus iria; Rate 0.2500 kg/ha) | herbicidal effect rating, CYPSE ([2]; Rate 0.0320 kg/ha) | herbicidal effect rating, CYPSE ([2]; Rate 0.0620 kg/ha) | herbicidal effect rating, CYPSE ([2]; Rate 0.1250 kg/ha) | herbicidal effect rating, CYPSE ([2]; Rate 0.2500 kg/ha) | herbicidal effect rating, MOOVA ([3]; Rate 0.0320 kg/ha) | herbicidal effect rating, MOOVA ([3]; Rate 0.0620 kg/ha) | herbicidal effect rating, MOOVA ([3]; Rate 0.1250 kg/ha) | herbicidal effect rating, MOOVA ([3]; Rate 0.2500 kg/ha) | herbicidal effect rating, SAGPY (Sagittaria pygmaea, L.; Rate 0.0320 kg/ha) | herbicidal effect rating, SAGPY (Sagittaria pygmaea, L.; Rate 0.0620 kg/ha) | herbicidal effect rating, SAGPY (Sagittaria pygmaea, L.; Rate 0.1250 kg/ha) | herbicidal effect rating, SAGPY (Sagittaria pygmaea, L.; Rate 0.2500 kg/ha) | other results
1 | C=CS(=O)(=O)NC(=O)C(C)Oc1ccc(C)cc1-c1nsc2ccc(-n3c(=O)cc(C(F)(F)F)n(C)c3=O)cc12 (stereo not drawn) [Example 570, Propionamide, 2-{{2-{5-[3,6-dihydro-3-methyl-2,6-dioxo-4-(trifluoromethyl)-1(2H)-pyrimidinyl]-1,2-benzisothiazol-3-yl}-p-tolyl}oxy}-N-(vinylsulfonyl)-] | 0.0 | 2.0 | 4.0 | 6.0 | 0.0 | 0.0 | 0.0 | 9.0 | 0.0 | 0.0 | 0.0 | 0.0 | 0.0 | 0.0 | 0.0 | 9.0 | 0.0 | 0.0 | 0.0 | 0.0 | herbicidal effect rating ORYSAT ([4]; Rate 0.0320 kg/ha): 0.0; herbicidal effect rating ORYSAT ([4]; Rate 0.0620 kg/ha): 1.0; herbicidal effect rating ORYSAT ([4]; Rate 0.1250 kg/ha): 2.0; herbicidal effect rating ORYSAT ([4]; Rate 0.2500 kg/ha): 3.0
2 | Cc1ccc(OC(C)C(=O)NS(C)(=O)=O)c(-c2nsc3ccc(-n4c(=O)cc(C(F)(F)F)n(C)c4=O)cc23)c1 (stereo not drawn) [Example 572, Propionamide, 2-{{2-{5-[3,6-dihydro-3-methyl-2,6-dioxo-4-(trifluoromethyl)-1(2H)-pyrimidinyl)-1,2-benzisothiazol-3-yl}-p-tolyl}oxy}-N-(methylsulfonyl)-] | 0.0 | 0.0 | 2.0 | 6.0 | 0.0 | 0.0 | 2.0 | 5.0 | 0.0 | 0.0 | 0.0 | 2.0 | 0.0 | 6.0 | 6.0 | 9.0 | 0.0 | 0.0 | 0.0 | 3.0 | herbicidal effect rating ORYSAT ([4]; Rate 0.0320 kg/ha): 0.0; herbicidal effect rating ORYSAT ([4]; Rate 0.0620 kg/ha): 1.0; herbicidal effect rating ORYSAT ([4]; Rate 0.1250 kg/ha): 3.0; herbicidal effect rating ORYSAT ([4]; Rate 0.2500 kg/ha): 6.0
3 | CCCCS(=O)(=O)NC(=O)COc1ccc(C)cc1-c1nsc2ccc(-n3c(=O)cc(C(F)(F)F)n(C)c3=O)cc12 [Example 573, Acetamide, N-(butylsulfonyl)-2-{{2-{5-[3,6-dihydro-3-methyl-2,6-dioxo-4-(trifluoromethyl)-1(2H)-pyrimidinyl]-1,2-benzisothiazol-3-yl}-p-tolyl}oxy}-] | 6.0 | 7.0 | 7.0 | 7.0 | 0.0 | 3.0 | 5.0 | 5.0 | 0.0 | 0.0 | 0.0 | 4.0 | 9.0 | 9.0 | 9.0 | 9.0 | 0.0 | 0.0 | 0.0 | 2.0 | herbicidal effect rating ORYSAT ([4]; Rate 0.0320 kg/ha): 0.0; herbicidal effect rating ORYSAT ([4]; Rate 0.0620 kg/ha): 0.0; herbicidal effect rating ORYSAT ([4]; Rate 0.1250 kg/ha): 0.0; herbicidal effect rating ORYSAT ([4]; Rate 0.2500 kg/ha): 1.0
